# Laboratory results from paper PMC11940343, “In Vitro and In Vivo Evaluation of the De Novo Designed Antimicrobial Peptide P6.2 Against a KPC-Producing P. aeruginosa Clinical Isolate” (Biomolecules, 2025).
# No end group written: not given here.
# Assays:
# [1] = tested on: P. aeruginosa strain PA01; details: mice challenged with P. aeruginosa PA01; ref previous work; cited from earlier work
# Source text: The antimicrobial peptide P6.2 was previously de novo designed as an alpha helix cationic amphipathic molecule. […] In this work, the peptide P6.2 antimicrobial activity and its possible synergy with ...
# [2] = tested on: human erythrocytes; details: cited from earlier work
# Procedure: Peptide 6.2 (P6.2) is a de novo designed antimicrobial peptide, with an amphipathic alfa helical structure. […] These findings are also in accordance with the previous results obtained for toxicity by hemolytic activity (hemolysis below 5% until 128 µg/mL).
# [3] = tested on: P. aeruginosa M13513; assay: Synergy by time-kill kinetic assay; assay type: cell-based, Pseudomonas aeruginosa; details: P6.2 and meropenem both at 0.5× MIC, synergy = ≥2-log10 decrease in CFU/mL vs most active constituent after 24 h
# Procedure: The possible synergistic interaction between P6.2 and meropenem was assessed through time–kill kinetic assays. These experiments were conducted in 50 mL tubes with a final volume of 10 mL. A log-phase culture of P. aeruginosa M13513 was obtained and subsequently diluted in CAMHB to achieve a final bacterial concentration of 5 × 10^6 CFU/mL. Both P6.2 and meropenem were tested individually and in combination at 0.5× MIC (minimum inhibitory concentration). Untreated bacterial cultures served as controls.
# The samples were incubated at 37 °C with constant shaking for 24 h. Aliquots were collected at 0, 1, 2, 3, 4, 8, and 20 h, serially diluted in saline, and plated in triplicate on LB agar using three drops of 50 µL per dilution. The plates were incubated at 37 °C for 24 h to determine colony-forming unit (CFU) counts.
# The results were plotted as Log CFU/mL versus time (h). […] A bactericidal effect was determined when the initial inoculum was reduced by three or more logarithmic units.
# [4] = tested on: P. aeruginosa strain PA01; details: sub-MIC concentrations, reference strain PAO1; cited from earlier work
# Source text: Biofilms are complex bacterial communities characterized by extensive intercellular interactions. Biofilm-associated bacteria, including P. aeruginosa, are commonly implicated in chronic infections that can persist for years. As such, managing biofilm-associated infections has become a critical focus in antimicrobial therapy, given their resistance to conventional antibiotic concentrations.
substance,measurement,setting,value
GLLRKWGKKWKEFLRRVWK-NH2 [Peptide P6.2],effect in murine acute lung infection model,[1],anti-inflammatory effects
same,erythrocytes lysis,[2],less than 10%
same,interaction with meropenem,[3],synergism
same,anti-biofilm activity,[4],did not display anti-biofilm activity
